Measurements published in US8618151B2, “Inhibitors of HCV NS5A” (Presidio Pharmaceuticals, Inc., priority 2008, dated 2013).

Tested on: HCV genotype 1b replicon
Experiment: HCV replicon assay (1b_Huh-Luc/Neo-ET cell line, luciferase readout)
Type: cell-based
Details: Hepatitis C virus, Huh-7, 72 h, read-out: Inhibition of HCV genotype 1b
Experimental: Biological activity of the compounds of the invention was determined using an HCV replicon assay. The 1b_Huh-Luc/Neo-ET cell line persistently expressing a bicistronic genotype 1b replicon in Huh 7 cells was obtained from ReBLikon GMBH. This cell line was used to test compound inhibition using luciferase enzyme activity readout as a measurement of compound inhibition of replicon levels.
On Day 1 (the day after plating), each compound is added in triplicate to the cells. Plates incubated for 72 h prior to running the luciferase assay. Enzyme activity was measured using a Bright-Glo Kit (cat. number E2620) manufactured by Promega Corporation. The following equation was used to generate a percent control value for each compound. % Control=(Average Compound Value/Average Control)*100
The EC50 value was determined using GraphPad Prism and the following equation: Y=Bottom+(Top−Bottom)/1+10^((Log IC50−X)*HillSlope))
EC50 values of compounds are repeated several times in the replicon assay.

Q: COC(=O)N[C@H](C(=O)N1CCC[C@H]1c1ncc(-c2ccc(-c3ccc4cc(-c5c[nH]c([C@@H]6CCCN6C(=O)[C@H](NC(=O)OC6CCOCC6)c6ccccc6)n5)ccc4n3)cc2)[nH]1)C1CCOCC1 [compound 92] was tested. Which EC50 did it give?
A: Its EC50 is less than 1 nM.

Q: COC(=O)N[C@H](C(=O)N1CCC[C@H]1c1ncc(-c2cnc3cc(-c4ccc5nc([C@@H]6CCCN6C(=O)[C@@H](NC(=O)OC)C6CCOCC6)[nH]c5c4)ccc3c2)[nH]1)C(C)C [compound 192] was tested. Which EC50 did it give?
A: Its EC50 is less than 1 nM.

Q: How did the EC50 turn out when COC(=O)N[C@@H](C(=O)N1CCC[C@H]1c1nc(-c2ccc3nc(-c4ccc(-c5cnc([C@@H]6CCCN6C(=O)[C@H](NC(=O)OC)c6ccccc6)[nH]5)cc4F)ccc3c2)c[nH]1)c1ccccc1 [compound 97] was run?
A: The EC50 was less than 1 nM.

Q: Which EC50 does the source give for COC(=O)N[C@H](C(=O)N1CCC[C@H]1c1nc2ccc3cc(-c4ccc5cc(-c6cnc([C@@H]7CCCN7C(=O)[C@H](NC(=O)OC)c7ccccc7)[nH]6)ccc5n4)ccc3c2[nH]1)C(C)C [compound 298] here?
A: Its EC50 is less than 1 nM.

Q: Which EC50 does the source give for CC(C)(C)OC(=O)N1CCCC1c1ncc(-c2ccc(-c3nc4cc(-c5cnc([C@@H]6CCCN6C(=O)OCc6ccccc6)[nH]5)ccc4s3)cc2)[nH]1 (stereo partly shown) [compound 250] here?
A: Its EC50 is 10 to 999 nM.

Q: COC(=O)N[C@H](C(=O)N1CCC[C@H]1c1ncc(-c2ccc(-c3ccc4cc(-c5c[nH]c([C@@H]6CCCN6C(=O)[C@@H](NC(=O)OC)C6CCOCC6)n5)cnc4c3)c(F)c2)[nH]1)C(C)C [compound 59] was tested. Which EC50 did it give?
A: The EC50 was less than 1 nM.

Q: Which EC50 does the source give for COC(=O)N[C@H](C(=O)N1CCC[C@H]1c1ncc(-c2ccc(-c3ccc4cc(-c5c[nH]c([C@@H]6CCCN6C(=O)[C@@H](NC(=O)OC)C6CCOCC6)n5)ccc4c3)cc2)[nH]1)C(C)C [compound 47] here?
A: Its EC50 is less than 1 nM.

Q: For CCNC(=O)N[C@@H](C(=O)N1CCC[C@H]1c1nc(-c2ccc3nc(-c4ccc(-c5cnc([C@@H]6CCCN6C(=O)[C@@H](NC(=O)OC)C(C)C)[nH]5)cc4)ccc3c2)c[nH]1)c1ccccc1 [compound 37], which EC50 is on record?
A: The EC50 was less than 1 nM.

Q: COC(=O)N[C@@H](C(=O)N1CCC[C@H]1c1ncc(-c2ccc(-c3nc4cc(-c5cnc([C@@H]6CCCN6C(=O)[C@H](NC(=O)OC)c6ccccc6)[nH]5)ccc4n3C)cc2)[nH]1)c1ccccc1 [compound 233] was tested. Which EC50 did it give?
A: Its EC50 is less than 1 nM.

Q: With COC(=O)N[C@H](C(=O)N1CCC[C@H]1c1nc2ccc(-c3ccc4nc(-c5ccc6nc([C@@H]7CCCN7C(=O)[C@@H](NC(=O)OC)C(C)C)[nH]c6c5)ccc4c3)cc2[nH]1)C(C)C [compound 280] as the compound, how does the EC50 read?
A: Its EC50 is less than 1 nM.

Q: For COC(=O)N[C@H](C(=O)N1CCC[C@H]1c1nc2c([nH]1)-c1ccc(-c3cc4ccc(-c5cnc([C@@H]6CCCN6C(=O)[C@H](NC(=O)OC6CCOCC6)c6ccccc6)[nH]5)cc4cn3)cc1CC2)C(C)C [compound 295], which EC50 is on record?
A: Its EC50 is less than 1 nM.

Q: With COC(=O)N[C@H](C(=O)N1CCC[C@H]1c1ncc(-c2ccc(-c3ccc4cc(-c5c[nH]c([C@@H]6CCCN6C(=O)[C@@H](c6ccccc6)N6CCCC6)n5)ccc4c3)cc2)[nH]1)C(C)C [Compound 9] as the compound, how does the EC50 read?
A: The EC50 was less than 1 nM.

Q: For COC(=O)N[C@H](C(=O)N1CCC[C@H]1c1nc2c([nH]1)-c1ccc(-c3cc4ccc(-c5cnc([C@@H]6CCCN6C(=O)[C@@H](NC(=O)OC)C6CCOCC6)[nH]5)cc4cn3)cc1CC2)C(C)C [compound 293], which EC50 is on record?
A: The EC50 was less than 1 nM.

Q: For COC(=O)N[C@H](C(=O)N1CCC[C@H]1c1ncc(-c2ccc(N3Cc4cc(-c5cnc([C@@H]6CCCN6C(=O)[C@@H](NC(=O)OC)C(C)C)[nH]5)ccc4C3=O)cc2)[nH]1)C(C)C [compound 290], which EC50 is on record?
A: Its EC50 is less than 1 nM.

Q: With COC(=O)N[C@H](C(=O)N1CCC[C@H]1c1ncc(-c2ccc3cc(-c4ccc(-c5cnc([C@@H]6CCCN6C(=O)[C@@H](c6ccccc6)N6CCOCC6)[nH]5)cc4)ccc3c2)[nH]1)C(C)C [compound 116] as the compound, how does the EC50 read?
A: The EC50 was less than 1 nM.

Q: Which EC50 does the source give for COC(=O)N[C@H](C(=O)N1CCC[C@H]1c1nc(-c2ccc3cc(-c4ccc(-c5cnc([C@@H]6CCCN6C(=O)[C@@H](NC(=O)OC)[C@@H](C)OC)[nH]5)cc4)ccc3c2)c[nH]1)[C@@H](C)OC [compound 3] here?
A: Its EC50 is less than 1 nM.

Q: Which EC50 does the source give for COC(=O)N[C@H](C(=O)N1CCC[C@H]1c1ncc(-c2ccc(-c3ccc4nc(-c5c[nH]c([C@@H]6CCCN6C(=O)[C@H](NC(=O)OC)c6ccccc6)n5)ccc4c3)cc2)[nH]1)C(C)C [compound 103] here?
A: Its EC50 is less than 1 nM.

Q: For COC(=O)N[C@H](C(=O)N1CCC[C@H]1c1nc2ccc(-c3ccc4cc(-c5cnc([C@@H]6CCCN6C(=O)[C@@H](c6ccccc6)N(C)C)[nH]5)ccc4c3)cc2[nH]1)C(C)C [compound 182], which EC50 is on record?
A: The EC50 was less than 1 nM.

Q: For COC(=O)N[C@H](C(=O)N1CCC[C@H]1c1ncc(-c2ccc(-c3ccc4cc(-c5c[nH]c([C@@H]6CCCN6C(=O)[C@H](NC(=O)N6CC[C@H](O)C6)c6ccccc6)n5)ccc4c3)cc2)[nH]1)C(C)C [compound 15], which EC50 is on record?
A: The EC50 was less than 1 nM.

Q: COC(=O)N[C@H](C(=O)N1CCC[C@H]1c1nc2ccc(-c3cccc4c(-c5cnc([C@@H]6CCCN6C(=O)[C@H](NC(=O)OC)c6ccccc6)[nH]5)cccc34)cc2[nH]1)C(C)C [compound 208] was tested. Which EC50 did it give?
A: Its EC50 is less than 1 nM.

Q: Which EC50 does the source give for COC(=O)N[C@H](C(=O)N1CCC[C@H]1c1ncc(-c2ccc(-c3ccc4cc(-c5c[nH]c([C@@H]6CCCN6C(=O)[C@H](NC(=O)OC(C)(C)C)c6ccccc6)n5)cnc4c3)nc2)[nH]1)C(C)C [compound 82] here?
A: The EC50 was less than 1 nM.

Q: For COC(=O)N[C@H](C(=O)N1CCC[C@H]1c1nc(-c2ccc3nc(-c4ccc(-c5cnc([C@@H]6CCCN6C(=O)[C@H](NC(=O)OC(C)(C)C)c6ccccc6)[nH]5)cc4)ccc3c2)c[nH]1)C(C)C [compound 30], which EC50 is on record?
A: Its EC50 is less than 1 nM.

Q: For COC(=O)N[C@H](C(=O)N1CCC[C@H]1c1ncc(-c2ccc(-c3ccc4cc(-c5c[nH]c([C@@H]6CCCN6C(=O)[C@@H](NC(=O)OC)C6CCOCC6)n5)cnc4c3)cn2)[nH]1)C(C)C [compound 95], which EC50 is on record?
A: The EC50 was less than 1 nM.

Q: How did the EC50 turn out when CCNC(=O)N[C@@H](C(=O)N1CCC[C@H]1c1ncc(-c2ccc3nc(-c4ccc(-c5cnc([C@@H]6CCCN6C(=O)[C@@H](NC(=O)OC)C(C)C)[nH]5)cc4)sc3c2)[nH]1)c1ccccc1 [compound 244] was run?
A: The EC50 was less than 1 nM.

Q: With COC(=O)N[C@H](C(=O)N1CCC[C@H]1c1ncc(-c2cccc3c(-c4ccc5nc([C@@H]6CCCN6C(=O)[C@@H](NC(=O)OC)C(C)C)[nH]c5c4)cccc23)[nH]1)C(C)C [compound 207] as the compound, how does the EC50 read?
A: The EC50 was less than 1 nM.

Q: COC(=O)N[C@H](C(=O)N1CCC[C@H]1c1ncc(-c2ccc(-c3ccc4cc(-c5c[nH]c([C@@H]6CCCN6C(=O)[C@H](NC(=O)OC(C)(C)C)c6ccccc6)n5)ccc4n3)cn2)[nH]1)C(C)C [compound 70] was tested. Which EC50 did it give?
A: The EC50 was less than 1 nM.

Q: Which EC50 does the source give for COC(=O)N[C@H](C(=O)N1CCC[C@H]1c1nc(-c2ccc3cc(-c4ccc(-c5cnc([C@@H]6CCCN6C(=O)[C@@H](NC(=O)OC)C(C)C)[nH]5)cc4C)ccc3c2)c[nH]1)C(C)C [compound 85] here?
A: The EC50 was less than 1 nM.

Q: For COC(=O)N[C@H](C(=O)N1CCC[C@H]1c1ncc(-c2ccc(-c3ccc4cc(-c5c[nH]c([C@@H]6CCCN6C(=O)[C@@H](NC(=O)OC)C6CCOCC6)n5)cnc4c3)nc2)[nH]1)C(C)C [compound 61], which EC50 is on record?
A: Its EC50 is less than 1 nM.

Q: Which EC50 does the source give for COC(=O)N[C@H](C(=O)N1CCC[C@H]1c1nc2ccc(-c3ccc4cc(-c5ccc6nc([C@@H]7CCCN7C(=O)[C@H](NC(=O)OC)c7ccccc7)[nH]c6c5)ccc4c3)cc2[nH]1)C(C)C [compound 283] here?
A: The EC50 was less than 1 nM.

Q: Which EC50 does the source give for COC(=O)N[C@H](C(=O)N1CCC[C@H]1c1ncc(-c2ccc3cc(-c4ccc(-c5cnc([C@@H]6CCCN6C(=O)[C@H](NC(=O)OC(C)(C)C)c6ccccc6)[nH]5)cc4)ncc3c2)[nH]1)C1CCOCC1 [compound 118] here?
A: The EC50 was less than 1 nM.

Q: COC(=O)N[C@H](C(=O)N1CCC[C@H]1c1nc(-c2ccc3cc(-c4ccc(-c5cnc([C@@H]6CCCN6C(=O)[C@@H](NC(=O)OC)C6CCOCC6)[nH]5)cc4F)ccc3c2)c[nH]1)C(C)C [compound 65] was tested. Which EC50 did it give?
A: The EC50 was less than 1 nM.

Q: CC(C)(C)OC(=O)N1CCCC1c1ncc(C23CCC(c4ccc5cc(-c6c[nH]c([C@@H]7CCCN7C(=O)OC(C)(C)C)n6)ccc5n4)(CC2)CC3)[nH]1 (stereo partly shown) [compound 268] was tested. Which EC50 did it give?
A: The EC50 was 10 to 999 nM.

Q: Which EC50 does the source give for COC(=O)N[C@H](C(=O)N1CCC[C@H]1c1nc(-c2ccc3nc(-c4ccc(-c5cnc([C@@H]6CCCN6C(=O)[C@H](NC(=O)OC)c6ccccc6)[nH]5)cc4)ccc3c2)c[nH]1)C(C)C [compound 26] here?
A: Its EC50 is less than 1 nM.

Q: How did the EC50 turn out when COC(=O)N[C@H](C(=O)N1CCC[C@H]1c1nc(-c2cnc3cc(-c4ccc(-c5cnc([C@@H]6CCCN6C(=O)[C@@H](NC(=O)OC)C6CCOCC6)[nH]5)cn4)ccc3c2)c[nH]1)C(C)C [compound 62] was run?
A: The EC50 was less than 1 nM.

Q: COC(=O)N[C@H](C(=O)N1CCC[C@H]1c1ncc(-c2ccc(-c3ccc4cc(-c5c[nH]c([C@@H]6CCCN6C(=O)[C@H](NC(=O)NC(C)(C)C)c6ccccc6)n5)ccc4c3)cc2)[nH]1)C(C)C [compound 23] was tested. Which EC50 did it give?
A: Its EC50 is less than 1 nM.

Q: For COC(=O)N[C@H](C(=O)N1CCC[C@H]1c1ncc(-c2ccc(-c3ccc4cc(-c5c[nH]c([C@@H]6CCCN6C(=O)[C@H](NC(=O)OC)c6ccccc6)n5)cnc4c3)nc2)[nH]1)C(C)C [compound 60], which EC50 is on record?
A: Its EC50 is less than 1 nM.

Q: For COC(=O)N[C@H](C(=O)N1CCC[C@H]1c1nc(-c2cnc3cc(-c4ccc(-c5cnc([C@@H]6CCCN6C(=O)[C@H](NC(=O)OC)c6ccccc6)[nH]5)cc4)ccc3c2)c[nH]1)C1CCOCC1 [compound 71], which EC50 is on record?
A: Its EC50 is less than 1 nM.

Q: Which EC50 does the source give for COC(=O)N[C@H](C(=O)N1CCC[C@H]1c1nc(-c2ccc3cc(-c4ccc(-c5cnc([C@@H]6CCCN6C(=O)[C@H](NC(=O)OC)c6ccccc6)[nH]5)cc4F)ccc3c2)c[nH]1)C1CCOCC1 [compound 114] here?
A: Its EC50 is less than 1 nM.

Q: COC(=O)N[C@@H](C)C(=O)N1CCC[C@H]1c1nc(-c2ccc3nc(C45CCC(c6cnc([C@@H]7CCCN7C(=O)[C@H](C)NC(=O)OC)[nH]6)(CC4)CC5)ccc3c2)c[nH]1 [compound 266] was tested. Which EC50 did it give?
A: The EC50 was less than 1 nM.

Q: COC(=O)N[C@H](C(=O)N1CCC[C@H]1c1nc(-c2ccc3cc(-c4ccc(-c5cnc([C@@H]6CCCN6C(=O)[C@@H](NC(=O)OC)C(C)C)[nH]5)nc4)ccc3c2)c[nH]1)C(C)C [compound 83] was tested. Which EC50 did it give?
A: Its EC50 is less than 1 nM.
